Experimental data: ChEMBL document CHEMBL1134799, “4,1-Benzoxazepinone analogues of efavirenz (Sustiva) as HIV-1 reverse transcriptase inhibitors” (Bioorg Med Chem Lett, 2001)

Experiments:
[1] = target: T1, Human immunodeficiency virus type 1 reverse transcriptase (Human immunodeficiency virus 1, UniProt Q72547); test: Compound was evaluated for its ability to inhibit HIV-1 Reverse Transcriptase in an in vitro enzyme assay
[2] = target: Human immunodeficiency virus type 1 reverse transcriptase (Human immunodeficiency virus 1) (UniProt Q72547)
Description: Compound was evaluated for its ability to inhibit the wild type RF strain of HIV-1

[3] = tested on: Human immunodeficiency virus type 1 reverse transcriptase (Human immunodeficiency virus 1), Q72547 [K103N]
Description: Compound was evaluated for its ability to inhibit a virus containing the clinically relevant K103N mutation

[4] = Total plasma concentration at 24 hr at a dose of 10 mg/kg when administered orally to rhesus monkey; format: ADME, organism-based, Macaca mulatta; set-up: dose 10 mg/kg, route oral; conditions: po, read-out: C24h
[5] = Area under curve obtained at a dose of 10 mg/kg when administered orally to rhesus monkey; format: ADME, organism-based, Macaca mulatta; set-up: dose 10 mg/kg, route oral; conditions: in vivo, po
[6] = Cmax was determined; format: ADME, organism-based; conditions: in vivo
[7] = Tmax was determined; format: ADME
[8] = target: T1, Human immunodeficiency virus type 1 reverse transcriptase; test: Inhibition of HIV-1 Reverse Transcriptase in an in vitro enzyme assay

O=C1COC(C#Cc2ccoc2)(C(F)(F)F)c2cc(Cl)ccc2N1 (centres undefined)
IC50 [1]: 2510 nM | IC90 [2]: 47.5 nM

C[C@H]1O[C@](C#CC2CC2)(C(F)(F)F)c2cc(F)ccc2NC1=O
IC50 [1]: 1940 nM | IC90 [2]: 189 nM

O=C1COC(C#Cc2ccccc2)(C(F)(F)F)c2cc(Cl)ccc2N1 (centres undefined)
IC50 [1]: 3300 nM | IC90 [3]: 4100 nM | IC90 [2]: 24.3 nM

CC[C@H]1O[C@](C#CC2CC2)(C(F)(F)F)c2cc(F)ccc2NC1=O
IC50 [1]: 1140 nM | IC90 [2]: 87.4 nM

O=C1COC(/C=C/C2CC2)(C(F)(F)F)c2cc(Cl)ccc2N1 (centres undefined)
IC50 [1]: 108 nM | IC90 [3]: 362 nM | IC90 [2]: 3.9 nM

O=C1Nc2ccc(Cl)cc2[C@@](/C=C/C2CC2)(C(F)(F)F)N1
IC50 [1]: 23 nM | IC90 [3]: 27 nM | IC90 [2]: 2.1 nM

O=C1Nc2ccc(Cl)cc2[C@@](C#CC2CC2)(C(F)(F)F)N1
IC50 [1]: 32 nM | IC90 [3]: 10 nM | IC90 [2]: 2 nM

CCC1OC(/C=C/C2CC2)(C(F)(F)F)c2cc(Cl)ccc2NC1=O (centres undefined)
IC50 [1]: 185 nM | IC90 [3]: 13 nM | IC90 [2]: 7.8 nM

O=C1Nc2ccc(Cl)cc2C(C#CC2CC2)(C(F)(F)F)OC1CC(F)(F)F (centres undefined)
IC50 [1]: 235 nM | IC90 [2]: 16.8 nM

CC1OC(C#CC2CC2)(C(F)(F)F)c2c(ccc(F)c2F)NC1=O (centres undefined)
IC50 [1]: 193 nM | IC90 [3]: 75 nM | IC90 [2]: 5.8 nM

CC(C)C#CC1(C(F)(F)F)OCC(=O)Nc2ccc(Cl)cc21 (centres undefined)
IC50 [1]: 423 nM | IC90 [3]: 784 nM | IC90 [2]: 9.7 nM

CC1OC(/C=C/C2CC2)(C(F)(F)F)c2cc(Cl)ccc2NC1=O (centres undefined)
concentration at 24 h [4]: 1400 nM | AUC [5]: 50.8 µM·h | Cmax [6]: 2360 nM | Tmax [7]: 11 h | IC50 [1]: 46 nM | IC90 [3]: 35 nM | IC90 [2]: 2.5 nM

CC[C@@H]1O[C@](C#CC2CC2)(C(F)(F)F)c2cc(F)ccc2NC1=O
IC50 [1]: 171 nM | IC90 [3]: 117 nM | IC90 [2]: 5.3 nM

CCC1OC(/C=C/C2CC2)(C(F)(F)F)c2cc(F)ccc2NC1=O (centres undefined)
IC50 [1]: 151 nM | IC90 [3]: 70 nM | IC90 [2]: 2.5 nM

C[C@@H]1O[C@](C#CC2CC2)(C(F)(F)F)c2cc(Cl)ccc2NC1=O (relative stereo)
concentration at 24 h [4]: 1140 nM | AUC [5]: 30 µM·h | Cmax [6]: 1670 nM | Tmax [7]: 6 h | IC50 [1]: 82 nM | IC90 [3]: 29 nM | IC90 [2]: 2.2 nM

CCCC1OC(C#CC2CC2)(C(F)(F)F)c2cc(Cl)ccc2NC1=O (centres undefined)
IC50 [1]: 799 nM | IC90 [2]: 17.2 nM

CCC1OC(C#CC2CC2)(C(F)(F)F)c2cc(Cl)ccc2NC1=O (centres undefined)
IC50 [8]: 391 nM | IC90 [3]: 139 nM | IC90 [2]: 8.4 nM

CC1OC(/C=C/C2CC2)(C(F)(F)F)c2c(ccc(F)c2F)NC1=O (centres undefined)
IC50 [1]: 173 nM | IC90 [3]: 81 nM | IC90 [2]: 5.2 nM

CC1OC(/C=C/C2CC2)(C(F)(F)F)c2cc(F)ccc2NC1=O (centres undefined)
IC50 [1]: 129 nM | IC90 [3]: 118 nM | IC90 [2]: 7.6 nM

C[C@@H]1O[C@](C#CC2CC2)(C(F)(F)F)c2cc(F)ccc2NC1=O
IC50 [1]: 95 nM | IC90 [3]: 333 nM | IC90 [2]: 5.2 nM

C[C@H]1O[C@](C#CC2CC2)(C(F)(F)F)c2cc(Cl)ccc2NC1=O
IC50 [1]: 249 nM | IC90 [3]: 1130 nM | IC90 [2]: 7 nM

O=C1COC(C#CC2CC2)(C(F)(F)F)c2cc(Cl)ccc2N1 (centres undefined)
IC50 [1]: 432 nM | IC90 [3]: 1400 nM | IC90 [2]: 9.1 nM

CCC#CC1(C(F)(F)F)OCC(=O)Nc2ccc(Cl)cc21 (centres undefined)
IC50 [1]: 964 nM | IC90 [3]: 1760 nM | IC90 [2]: 9.1 nM

CC(C)C1OC(C#CC2CC2)(C(F)(F)F)c2cc(Cl)ccc2NC1=O (centres undefined)
IC50 [1]: 597 nM | IC90 [2]: 20.7 nM
